Data from US20060263802A1 (priority 2003, published 2006).

What was measured:
Format in all cases: binding
[1] = tested on: human monoclonal antibody CR57
[2] = tested on: human monoclonal antibody CRJB
[3] = tested on: human monoclonal antibody CRJB; remark: listed apart in the source
[4] = tested on: human monoclonal antibody CR57; remark: listed apart in the source
[5] = tested on: human monoclonal antibody CRJA
[6] = tested on: human monoclonal antibody CRJA; remark: listed apart in the source

Sequence	Binding of CR57 to linear peptide (PEPSCAN-ELISA signal) [1]	Binding of CRJB (10 μg/ml) to looped/cyclic peptide (PEPSCAN-ELISA) [2]	Binding of CRJB to linear peptide (PEPSCAN-ELISA signal) [3]	Binding of CR57 (10 μg/ml) to looped/cyclic peptide (PEPSCAN-ELISA) [4]	Binding of CRJA (10 μg/ml) to looped/cyclic peptide (PEPSCAN-ELISA) [5]	Binding of CRJA to linear peptide (PEPSCAN-ELISA signal) [6]	Binding of CRJB (10 μg/ml) to looped/cyclic peptide (PEPSCAN-ELISA signal) [2]	Binding of CR57 (10 μg/ml) to looped/cyclic peptide (PEPSCAN-ELISA signal) [4]	Binding of CRJA (10 μg/ml) to looped/cyclic peptide (PEPSCAN-ELISA signal) [5]	Binding of human monoclonal antibody CR57 to linear peptide (PEPSCAN-ELISA signal) [1]	Binding of CRJB to looped/cyclic peptide (PEPSCAN-ELISA signal) [2]	Binding of human monoclonal antibody CRJB to linear peptide (PEPSCAN-ELISA signal) [3]	Binding of CR57 to looped/cyclic peptide (PEPSCAN-ELISA signal) [4]	Binding of CRJA to looped/cyclic peptide (PEPSCAN-ELISA signal) [5]	Binding of human monoclonal antibody CRJA to linear peptide (PEPSCAN-ELISA signal) [6]
RGLYKSLKGACKLKL	90	96	121	96	113	107	–	–	–	–	–	–	–	–	–
GDPRYEESLHNPYPD	36	–	98	–	–	96	82	64	90	–	–	–	–	–	–
SYMELKVGYILAIKM	65	–	123	–	–	143	92	106	96	–	–	–	–	–	–
NGIILGPDGNVLIPE	102	85	146	104	85	89	–	–	–	–	–	–	–	–	–
VFKDGDEAEDFVEVH	–	–	–	–	–	–	–	–	–	100	125	106	168	104	125
LADPSTVFKDGDEAE	–	–	–	–	–	–	–	–	–	68	90	116	134	90	86
DRSLHSRVFPSGKCS	98	–	142	–	–	187	100	91	99	–	–	–	–	–	–
HSRVFPSGKCSGVAV	97	–	118	–	–	111	104	138	113	–	–	–	–	–	–
LDPYDRSLHSRVFPS	99	–	142	–	–	113	83	88	98	–	–	–	–	–	–
GLRLMDGTWVAMQTS	104	99	138	120	100	108	–	–	–	–	–	–	–	–	–
PHVNGVFFNGIILGP	93	134	173	112	107	117	–	–	–	–	–	–	–	–	–
CPNNLVVEDEGCTNL	77	–	97	–	–	75	54	79	84	–	–	–	–	–	–
